Test results taken from US6008356A, “Pharmaceutically available protoberberine salts derivatives, and protoberberine salts derivatives, and protoberberine derivatives and salts thereof” (priority 1998, dated 1999).
In brackets after ≈: the same amount, converted by molar mass. Where two headings read alike, the source gives them in different places.

Columns and labels:
[1] = tested on: C. albicans ATCC 10231; test: MIC; assay type: cell-based; details: Candida albicans, ATCC10231
[2] = tested on: C. albicans ATCC 28838; test: MIC; assay type: cell-based, Candida albicans
[3] = tested on: C. albicans ATCC 11651; test: MIC; assay type: cell-based, Candida albicans
[4] = tested on: C. albicans KCTC 1940; test: MIC; assay type: cell-based, Candida albicans
[5] = tested on: C. albicans U.K.; test: MIC; assay type: cell-based; details: Candida albicans
[6] = tested on: C. albicans OY 019; test: MIC; assay type: cell-based, Candida albicans
[7] = tested on: C. albicans OY 003; test: MIC; assay type: cell-based, Candida albicans
[8] = tested on: C. albicans IFO 1385; test: MIC; assay type: cell-based, Candida albicans
[9] = tested on: C. parapsilosis; test: MIC; assay type: cell-based; details: Lodderomyces parapsilosis
[10] = tested on: C. glabrata; test: MIC; assay type: cell-based; details: Nakaseomyces glabratus
[11] = tested on: C. glulliermendi; test: MIC; assay type: cell-based
[12] = tested on: C. krusei; test: MIC; assay type: cell-based; details: Pichia kudriavzevii
[13] = tested on: E. floccosum; test: MIC; assay type: cell-based, Epidermophyton floccosum
[14] = tested on: Epidermophyton floccosum; test: Antifungal efficacy of creamy formulation against local fungal skin infection; assay type: in vivo, mouse (SKH/1, hairless, male); details: topical
Procedure: Specific pathogen free SKH/1 male mouse(Hairless) of which weight is 30-35 g and age is 5 weeks, was reared with sterilized water and feed for 12 night/day in the condition of 21-23° C. and of 50% relative humidity. Five mice were allocated by each group. After skin infection, each mouse was taken in separate cage. The strain of microorganism for infection(Epidermophyton floccosum) was cultivated on a flat medium of SDA(Sabouraud Dextrose Agar) for 5-7 days and after confirmation of macrocomidia, 3 ml of RPMI (Rosewell Park Memorial Institute) 1640 media per each flat medium was added thereto and then scraped well using loop to remove hyphae from media. The floating liquid was suspended briefly and then diluted with RPMI 1640 media to adjust the concentration of hyphae to 2×10^6 CFU/ml. Mouse was anesthetized and marked on back site(lumbosacral area) in a shape of circle of which diameter is 1.5 cm. Then, the inner part of marked skin was scratched with sand paper. The scratched part was covered with a filter paper to preserve inoculated microorganism for a long time and thereby stimulating the skin continuously. 0.2 ml of fungus solution of which concentration is adjusted as described above, was inoculated between the skin and filter paper. 5 Days after the inoculation, the filter paper was removed and the infection of skin was examined. The test formulations, 0.5% creamy formulations of the compounds Nos. 62 and 85, 1.0% creamy formulation of Terbinafine(Lamisile cream) and a placebo was applied on the infected areas in a same amount once a day for 5 days. The clinical evaluation on the change of the infected area in 5 days after the inoculation was performed and expressed numerically from 0 to 4. The daily change of the infected area was checked every day. The result of each group was compared with each other.
1: Mild erythema or small number of skin eruption
2: Well-demarcated erythema with scales or mild skin eruption of infected area
3: Wide area of marked skin eruption, scales, swelling or severe skin eruption with partial swelling and scales
4: The same as those of control, or severe skin eruption in entire lesion
The result was calculated as follows;
T: Average score of clinical evaluation in drug treated area
K: Average score of clinical evaluation in placebo control group
Moreover, the antifungal efficacies of the 0.5% creamy formulation of the compounds Nos. 29, 35, 60, 62, 63 and 85, and 1% creamy formulation of Terbinafme (Lamisil cream), which are measured by applying the above formulations on the skin infected with Epidermophyton floccosum of mouse which is the standard animal for the test of local fungal skin infection, i.e, Specific Pathogen Free SKH/1, are described in the following Table 4.

[15] = Candida albicans, ATCC28838, C. albicans ATCC 28838, read-out: MIC
[16] = Candida albicans, ATCC11651, C. albicans ATCC 11651, read-out: MIC
[17] = Candida albicans, KCTC1940, C. albicans KCTC 1940, read-out: MIC
[18] = Candida albicans, OY019, C. albicans OY 019, read-out: MIC
[19] = Candida albicans, OY003, C. albicans OY 003, read-out: MIC
[20] = Candida albicans, IFO1385, C. albicans IFO 1385, read-out: MIC

## Clc1ccc(COC(Cn2ccnc2)c2ccc(Cl)cc2Cl)c(Cl)c1 (stereo not shown) [Miconazole, reference compound]
[1]
  MIC: 6.25 µg/mL (≈ 15 µM)
[2]; Candida albicans, ATCC28838
  MIC: 0.78 µg/mL (≈ 1.87 µM)
[3]; Candida albicans, ATCC11651
  MIC: 3.12 µg/mL (≈ 7.51 µM)
[4]; Candida albicans, KCTC1940
  MIC: 1.56 µg/mL (≈ 3.75 µM)
[5]
  MIC: > 100 µg/mL
[6]; Candida albicans, OY019
  MIC: 1.56 µg/mL (≈ 3.75 µM)
[7]; Candida albicans, OY003
  MIC: 1.56 µg/mL (≈ 3.75 µM)
[8]; Candida albicans, IFO1385
  MIC: 3.12 µg/mL (≈ 7.51 µM)
[9]
  MIC: 3.12 µg/mL (≈ 7.51 µM)
[10]
  MIC: > 100 µg/mL
[11]
  MIC: 3.12 µg/mL (≈ 7.51 µM)
[12]
  MIC: 3.12 µg/mL (≈ 7.51 µM)
[13]; Epidermophyton floccosum
  MIC: 6.25 µg/mL (≈ 15 µM)

## CN(C/C=C/C#CC(C)(C)C)Cc1cccc2ccccc12 [Terbinabin, Terbinafine, reference compound]
[14]; 1.0% cream
  Efficacy (%) 0 day later: 0%
  Efficacy (%) 1 day later: 40.0%
  Efficacy (%) 2 day later: 57.9%
  Efficacy (%) 3 day later: 68.4%
  Efficacy (%) 4 day later: 70.2%
  Efficacy (%) 5 day later: 71.4%
  Efficacy (%) 6 day later: 73.4%
  Efficacy (%) 7 day later: 75.7%

## COc1ccc2c(Cc3ccc(OC(F)(F)F)cc3)c3[n+](cc2c1OC)CCc1cc2c(cc1-3)OCO2 [compound 31, 13-(4-trifluoromethoxybenzyl) berberine chloride]
[2]; [15]
  MIC: 0.78 µg/mL
[3]; [16]
  MIC: 1.56 µg/mL
[4]; [17]
  MIC: 1.56 µg/mL
[6]; [18]
  MIC: 1.56 µg/mL
[7]; [19]
  MIC: 1.56 µg/mL
[8]; [20]
  MIC: 3.12 µg/mL

## CCC(C)n1ncn(-c2ccc(N3CCN(c4ccc(OCC5COC(Cn6cncn6)(c6ccc(Cl)cc6Cl)O5)cc4)CC3)cc2)c1=O (stereo not shown) [Itraconazole, reference compound]
[2]; Candida albicans, ATCC28838
  MIC: > 100 µg/mL
[3]; Candida albicans, ATCC11651
  MIC: > 100 µg/mL
[4]; Candida albicans, KCTC1940
  MIC: > 100 µg/mL
[6]; Candida albicans, OY019
  MIC: > 100 µg/mL
[7]; Candida albicans, OY003
  MIC: > 100 µg/mL
[8]; Candida albicans, IFO1385
  MIC: > 100 µg/mL
[13]; Epidermophyton floccosum
  MIC: 50 µg/mL (≈ 70.9 µM)

## C[C@@H]1[C@H](O)[C@@H](C)/C=C/C=C/C=C/C=C/C=C/C=C/C=C/[C@H](O[C@@H]2O[C@H](C)[C@@H](O)[C@H](N)[C@@H]2O)C[C@@H]2O[C@](O)(C[C@@H](O)C[C@@H](O)[C@H](O)CC[C@@H](O)C[C@@H](O)CC(=O)O[C@H]1C)C[C@H](O)[C@H]2C(=O)O [Amphotericin B, reference compound]
[1]
  MIC: 1.56 µg/mL (≈ 1.69 µM)
[2]; Candida albicans, ATCC28838
  MIC: 3.12 µg/mL (≈ 3.38 µM)
[3]; Candida albicans, ATCC11651
  MIC: 1.56 µg/mL (≈ 1.69 µM)
[4]; Candida albicans, KCTC1940
  MIC: 0.78 µg/mL (≈ 0.844 µM)
[5]
  MIC: 3.12 µg/mL (≈ 3.38 µM)
[6]; Candida albicans, OY019
  MIC: 0.4 µg/mL (≈ 0.433 µM)
[7]; Candida albicans, OY003
  MIC: 0.78 µg/mL (≈ 0.844 µM)
[8]; Candida albicans, IFO1385
  MIC: 1.56 µg/mL (≈ 1.69 µM)
[9]
  MIC: 3.12 µg/mL (≈ 3.38 µM)
[10]
  MIC: 1.56 µg/mL (≈ 1.69 µM)
[11]
  MIC: 1.56 µg/mL (≈ 1.69 µM)
[12]
  MIC: 0.78 µg/mL (≈ 0.844 µM)
[13]; Epidermophyton floccosum
  MIC: 12.5 µg/mL (≈ 13.5 µM)

## COc1cc(Cc2c3[n+](cc4c(OC)c(OC)ccc24)CCc2cc4c(cc2-3)OCO4)cc(OC)c1OC [compound 29, 13-(3,4,5-trimethoxybenzyl)berberine chloride]
[2]; [15]
  MIC: 3.12 µg/mL
[3]; [16]
  MIC: 1.56 µg/mL
[4]; [17]
  MIC: 1.56 µg/mL
[6]; [18]
  MIC: 6.25 µg/mL
[7]; [19]
  MIC: 6.25 µg/mL
[8]; [20]
  MIC: 25 µg/mL
[14]; 0.5% cream
  Efficacy (%) 0 day later: 0%
  Efficacy (%) 1 day later: 30.0%
  Efficacy (%) 2 day later: 33.4%
  Efficacy (%) 3 day later: 34.6%
  Efficacy (%) 4 day later: 48.0%
  Efficacy (%) 5 day later: 56.4%
  Efficacy (%) 6 day later: 63.0%
  Efficacy (%) 7 day later: 65.8%

## COc1ccc2c(Cc3ccc(C(C)(C)C)cc3)c3[n+](c(O)c2c1OC)CCc1cc2c(cc1-3)OCO2.[Cl-] [compound 64, 8-hydroxy-13-(4-t-butylbenzyl) berberine chloride]
[2]; C. albicans ATCC 28838
  MIC: 3.125 µg/mL
[3]; C. albicans ATCC 11651
  MIC: 3.125 µg/mL
[4]; C. albicans KCTC 1940
  MIC: 12.5 µg/mL
[6]; C. albicans OY 019
  MIC: 0.4 µg/mL
[7]; C. albicans OY 003
  MIC: 6.25 µg/mL
[8]; C. albicans IFO 1385
  MIC: 25 µg/mL
[13]; E. floccosum
  MIC: > 100 µg/mL

## COc1cc2c(cc1OC)-c1c(Cc3ccc(C(C)(C)C)cc3)c3ccc(OC)c(OC)c3c[n+]1CC2 [compound 77, 13-(4-t-butylbenzyl)palmatine iodide]
[2]; [15]
  MIC: 0.78 µg/mL
[3]; [16]
  MIC: 0.78 µg/mL
[4]; [17]
  MIC: 1.56 µg/mL
[6]; [18]
  MIC: 1.56 µg/mL
[7]; [19]
  MIC: 0.78 µg/mL
[8]; [20]
  MIC: 3.12 µg/mL

## COc1ccc2c(Cc3ccc(C)c(C)c3)c3[n+](cc2c1OC)CCc1cc2c(cc1-3)OCO2 [compound 18, 13-(3,4-dimethylbenzyl)berberine chloride]
[2]; [15]
  MIC: 3.12 µg/mL
[3]; [16]
  MIC: 3.12 µg/mL
[4]; [17]
  MIC: 6.25 µg/mL
[6]; [18]
  MIC: 6.25 µg/mL
[7]; [19]
  MIC: 6.25 µg/mL
[8]; [20]
  MIC: 12.5 µg/mL

## C=Cc1ccc(Cc2c3[n+](cc4c(OC)c(OC)ccc24)CCc2cc4c(cc2-3)OCO4)cc1 [compound 60, 13-(4-vinylbenzyl)berberine chloride]
[2]; [15]
  MIC: 3.12 µg/mL
[3]; [16]
  MIC: 6.25 µg/mL
[4]; [17]
  MIC: 6.25 µg/mL
[6]; [18]
  MIC: 12.5 µg/mL
[7]; [19]
  MIC: 6.25 µg/mL
[8]; [20]
  MIC: 25 µg/mL
[14]; 0.5% cream
  Efficacy (%) 0 day later: 0%
  Efficacy (%) 1 day later: 20.0%
  Efficacy (%) 2 day later: 32.0%
  Efficacy (%) 3 day later: 36.0%
  Efficacy (%) 4 day later: 48.6%
  Efficacy (%) 5 day later: 51.5%
  Efficacy (%) 6 day later: 58.6%
  Efficacy (%) 7 day later: 60.5%

## COc1ccc2c(Cc3cccc(Oc4ccccc4)c3)c3[n+](cc2c1OC)CCc1cc2c(cc1-3)OCO2 [compound 58, 13-(3-phenoxybenzyl)berberine chloride]
[2]; [15]
  MIC: 3.12 µg/mL
[3]; [16]
  MIC: 12.5 µg/mL
[4]; [17]
  MIC: 12.5 µg/mL
[6]; [18]
  MIC: 12.5 µg/mL
[7]; [19]
  MIC: 6.25 µg/mL
[8]; [20]
  MIC: 25 µg/mL
